Where “and” joins values, the source holds several entries; their conditions need not be identical. Equal entries are not always repeated.
How the values were obtained:
MTH1 [1] = biological target: T1, MTH1 (Homo sapiens, UniProt P36639); assay: CETSA melt curve for MTH1; assay type: cell-based; parameters: endogenous in cells; settings: 20 µM
Experimental: (§1) For CETSA experiments with cells treated in culture, 1 × 10^6 HL-60 were treated with DMSO (0.1 % v/v final) or 20 µM compound for 3 h at 37 °C and 5% CO2 in a humidified incubator. T47D^WT cells were treated instead with 80 µM TH1659, 15 µM TH5423/5424 and 1.5 µM TH5427. The cells were harvested, washed twice with PBS and resuspended in TBS with protease inhibitors, as above. Heating was identical as before, except that immediately following heating, the cell suspensions were snap frozen in a dry ice/ethanol bath and freeze-thawed, as previously, to lyse cells. Centrifugation at 20 000 × g for 20 min at 4 °C removed cellular debris and protein aggregates, and lysates were prepared for western blotting.

NUDT5 in T47D cells = biological target: T2, NUDT5 in T47D cells (Homo sapiens, UniProt Q9UKK9); assay: intact cell CETSA in T47D cells; assay type: cell-based; settings: 1.5 µM TH5427, 83 °C
T2 construct: endogenous in cells; host or cells: T47D (T47D^WT)
Experimental: as §1

NUDT5 in HL-60 cells [2] = biological target: T3, NUDT5 in HL-60 cells (Homo sapiens, UniProt Q9UKK9); assay: CETSA melt curve (apparent Tagg); assay type: cell-based
T3 construct: endogenous in cells; host or cells: HL-60
Experimental: as §1, with “blotting. […]” for “blotting.”
Supplementary Figure 6: Thermal shift of NUDT5 with TH5427 by CETSA.
CETSA melt curve comparing DMSO-treated HL-60 cells to those treated with 2.5 or 20 µM TH5427. All points are shown for n=2 experiments and are normalized to SOD1 band intensity as a loading control. Representative, cropped western blots are shown. Apparent Tagg temperatures are shown below. […]

NUDT5 in HL-60 cells [3] = biological target: T3, NUDT5 in HL-60 cells; assay: drug affinity responsive target stability (DARTS); assay type: cell-based; settings: 0.74 and 2.2 µM, 4 h, HL-60 cells in culture
Experimental: Target engagement was also determined by drug affinity responsive target stability (DARTS)[33]. HL-60 cells were treated in culture with DMSO (0.1% v/v) or TH5427 at 0.7 or 2.2 µM for 4 h. Following two PBS washes, the cells were lysed with M-PER extraction buffer (ThermoFisher) supplemented with protease inhibitor cocktail (Roche). The lysates were divided into 20 µg aliquots and followed by digestion with pronase at the indicated protein to pronase ratios for 30 min at room temperature. Samples were prepared for western blotting and NUDT5 stabilization was compared with SOD1 as a loading control.

MTH1 [4] = biological target: T1, MTH1; assay: phosphohydrolase selectivity, malachite green assay; assay type: biochemical; parameters: His-tag (N); made in house; host or cells: E. coli BL21 (DE3) R3 pRARE2
Experimental: The selectivity assay for TH5427 against similar pyrophosphohydrolases was performed with MTH1, NUDT9, NUDT2, NUDT12, NUDT14, NUDT15, NUDT18, ITPase, dCTPase and dUTPase[9]. All analyses were performed by malachite green assay following 30 min incubation at room temperature in reaction buffer (100 mM Tris Acetate, pH 7.5, 40 mM NaCl, 10 mM MgAc, 1 mM DTT) with 100 µM TH5427 and preferred substrates for each enzyme (4.75 nM MTH1 with 100 µM dGTP, 8 nM NUDT15 with 100 µM dGTP, 8 nM NUDT2 with 16 µM AP4A, 2 nM NUDT5 with 50 µM ADPR, 20 nM NUDT9 with 50 µM ADPR, 20 nM NUDT12 with 50 µM NADH, 2 nM NUDT14 with 50 µM ADPR, 200 nM NUDT18 with 50 µM 8-oxo-dGTP, 0.2 nM ITPase with […], 35 nM dCTPase with 35 µM dCTP, and 1 nM dUTPase with 12.5 µM dUTP). MTH1, NUDT15, NUDT18, ITPase, dCTPase and dUTPase reactions were coupled with 0.2 U/mL pyrophosphatase, while NUDT2, NUDT5, NUDT9, NUDT12, and NUDT14 reactions were coupled by bovine intestinal phosphatase (10 U/mL).

## Cn1c(=O)c2c(nc(N3CCNCC3)n2Cc2nnc(-c3ccc(Cl)c(Cl)c3)o2)n(C)c1=O [TH5427]
MTH1 [1]
  thermal shift of MTH1 by CETSA: no thermal shift
NUDT5 in T47D cells
  NUDT5 stabilization in T47D cells: demonstrated the best ability to stabilize NUDT5 in T47D cells
NUDT5 in HL-60 cells [2]
  shift of NUDT5 apparent Tagg: ≈ 8 °C
NUDT5 in HL-60 cells [3]
  NUDT5 stabilization against protease degradation: stabilized NUDT5 against exogenous protease degradation
MTH1 [4]; 100 µM
  inhibition at 100 µM: 82%
MTH1 [4]; dose-response, malachite green assay
  IC50: 20.3 µM and 20 µM
MTH1 [4]; in vitro, ratio of IC50 values
  selectivity for NUDT5 over MTH1: 690 fold

Reference: PMC5772648, “Targeted NUDT5 inhibitors block hormone signaling in breast cancer cells” (Nature Communications, 2018)
